We go through twelve compounds from PubChem BioAssay (NCI).

Some test systems named below: NCI-H460 lung; HL-60(TB) leukemia; SF-268 CNS; M19-MEL melanoma; OVCAR-5 ovarian; MOLT-4 leukemia; SK-MEL-2 melanoma; UO-31 renal; OVCAR-3 ovarian; EKVX NSCLC.
Common to all, as to assay: NCI anticancer screen, dose series, 48 h

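Test compounds were applied to cells in 96-well plates for 48 hours at 5 doses. At the GI50, growth is halved. The concentration for full growth arrest is given as TGI.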

On to `O=C1OC(=O)c2c1nc1ccccc1c2-c1ccccc1`, for which the TGI in the assay with NCI-H460 lung, with HL-60(TB) leukemia, in the assay on SF-268 CNS, with M19-MEL melanoma, with OVCAR-5 ovarian and in the assay with MOLT-4 leukemia was more than 100 µM in each case. Moreover, the TGI with SK-MEL-2 melanoma and with UO-31 renal was more than 100 µM in each case.

Consider `C=C1C(=O)O[C@@H]2C[C@@]3(C)[C@H](O)CCC(=C)[C@@H]3C[C@H]12`, for which the TGI with NCI-H460 lung came to 19.7 µM; in the assay with SF-268 CNS, 34.9 µM; with M19-MEL melanoma it was 32.9 µM; with OVCAR-5 ovarian, 20.5 µM; in the assay on OVCAR-3 ovarian, 21.4 µM; with EKVX NSCLC it was 29.7 µM. The TGI is 40 µM with SK-MEL-2 melanoma and 23.2 µM in the assay on UO-31 renal.

Regarding `CS(=O)(=O)OCCN1CCN(C(=O)c2ccc(Cl)c3c(Nc4ccc(S(=O)(=O)N=C(N)N)cc4)c4ccccc4nc23)CC1`, the TGI in the assay on NCI-H460 lung, in the assay on HL-60(TB) leukemia, with SF-268 CNS, in the assay on M19-MEL melanoma, in the assay on OVCAR-5 ovarian and in the assay with OVCAR-3 ovarian was more than 100 µM throughout. Also, the TGI in the assay on MOLT-4 leukemia, with SK-MEL-2 melanoma and with UO-31 renal was more than 100 µM in each case.

For `CC(C)(C)C1=NO[C@H]2[C@@H](NC(=O)c3ccccc3)CC[C@@H]12`, the TGI with NCI-H460 lung, in the assay on HL-60(TB) leukemia, with SF-268 CNS, with M19-MEL melanoma, with OVCAR-5 ovarian and in the assay on OVCAR-3 ovarian was more than 100 µM throughout. For the same compound, the TGI with MOLT-4 leukemia and in the assay with UO-31 renal was more than 100 µM throughout.

As for `O=C1C2C(C(=O)N1Cc1ccccc1)N(Cc1ccccc1)C(=O)N2Cc1ccccc1` (stereo unspecified), the TGI in the assay with NCI-H460 lung, in the assay with HL-60(TB) leukemia, with SF-268 CNS, with M19-MEL melanoma, in the assay with OVCAR-5 ovarian and with OVCAR-3 ovarian was more than 100 µM throughout. In addition, the TGI in the assay on EKVX NSCLC, in the assay on MOLT-4 leukemia and with UO-31 renal was more than 100 µM throughout.

As for `CCOC(=O)C1=C(C)N(NC(N)=O)C2(N)N(NC(N)=O)C(C)=C(C(=O)OCC)C12C#N` (stereo unspecified), the TGI in the assay with NCI-H460 lung, with SF-268 CNS, in the assay on M19-MEL melanoma, in the assay on OVCAR-5 ovarian, with OVCAR-3 ovarian and in the assay with EKVX NSCLC was more than 100 µM each time. Besides, the TGI in the assay on MOLT-4 leukemia, in the assay with SK-MEL-2 melanoma and in the assay with UO-31 renal was more than 100 µM throughout.

Take `Nc1nc(Cl)c2ncn(Cc3ccc(C45CC6CC(CC(C6)C4)C5)c(OCc4cc(F)c(F)cc4F)c3)c2n1`: the GI50 with NCI-H460 lung is 2390 nM; in the assay with HL-60(TB) leukemia, 1060 nM; with SF-268 CNS, 3010 nM; in the assay with OVCAR-5 ovarian it was 13400 nM; in the assay on OVCAR-3 ovarian it was 2090 nM; with EKVX NSCLC it was 10800 nM. In addition, the figures for the GI50 in the assay with MOLT-4 leukemia, with SK-MEL-2 melanoma and with UO-31 renal were 837 nM, 5840 nM and 4540 nM, respectively. Besides, the TGI with NCI-H460 lung was found to be 5.89 µM; in the assay on HL-60(TB) leukemia, 2.85 µM; in the assay on SF-268 CNS it was 15.2 µM; in the assay with OVCAR-5 ovarian it was 33.9 µM; in the assay on OVCAR-3 ovarian, 14.7 µM; with EKVX NSCLC it was 67.1 µM. Further, the TGI in the assay on MOLT-4 leukemia came to 2.71 µM; in the assay with SK-MEL-2 melanoma, 20.4 µM; in the assay on UO-31 renal it was 19.4 µM.

With `Nc1nc(-c2ccccc2)c(CC(=O)O)s1`, the TGI was more than 100 µM in the assay on NCI-H460 lung; 83.1 µM in the assay on HL-60(TB) leukemia; more than 100 µM in the assay with SF-268 CNS; more than 100 µM with OVCAR-5 ovarian; more than 100 µM with OVCAR-3 ovarian; more than 100 µM with EKVX NSCLC. Further, the TGI with MOLT-4 leukemia, in the assay on SK-MEL-2 melanoma and in the assay on UO-31 renal was more than 100 µM each time.

Take `C/C(=C/CCC(C)[C@@H]1CC[C@]2(C)C3=C(CC[C@@]12C)[C@@]1(C)CCC(=O)C(C)(C)[C@@H]1CC3)C(=O)O` (stereo partly specified): the GI50 in the assay with NCI-H460 lung was 1280 nM; with HL-60(TB) leukemia it was 855 nM; in the assay on SF-268 CNS, 1470 nM; in the assay on OVCAR-5 ovarian it was 1680 nM; in the assay on OVCAR-3 ovarian it was 1410 nM; in the assay with EKVX NSCLC, 705 nM. In addition, the GI50 in the assay on MOLT-4 leukemia was 1460 nM; with SK-MEL-2 melanoma, 1260 nM; in the assay with UO-31 renal, 1080 nM. Also, the TGI stood at 4.02 µM in the assay with NCI-H460 lung; 2.32 µM with HL-60(TB) leukemia; 3.08 µM in the assay on SF-268 CNS; 3.29 µM with OVCAR-5 ovarian; 2.79 µM in the assay with OVCAR-3 ovarian; 2.19 µM with EKVX NSCLC. Further, the TGI came to 3.24 µM with MOLT-4 leukemia, 2.89 µM with SK-MEL-2 melanoma and 2.44 µM in the assay on UO-31 renal.

`CCc1ccc(Oc2c(-c3ccc(OCc4ccc(Cl)cc4)cc3O)nn(C)c2C(F)(F)F)cc1`: the GI50 in the assay with NCI-H460 lung was 356 nM; in the assay with HL-60(TB) leukemia it was 1420 nM; in the assay on SF-268 CNS, 1250 nM; in the assay with OVCAR-5 ovarian it was 1750 nM; in the assay with OVCAR-3 ovarian it was 334 nM; in the assay with EKVX NSCLC, 1030 nM. In addition, the GI50 was 565 nM in the assay on MOLT-4 leukemia, 1020 nM with SK-MEL-2 melanoma and 432 nM in the assay on UO-31 renal. In addition, the TGI in the assay on NCI-H460 lung turned out to be 1.31 µM; in the assay with HL-60(TB) leukemia, 3.62 µM; in the assay on SF-268 CNS, 2.9 µM; in the assay on OVCAR-5 ovarian, 3.85 µM; in the assay with OVCAR-3 ovarian, 1.13 µM; in the assay with EKVX NSCLC it was 2.98 µM. The results for the TGI with MOLT-4 leukemia, in the assay on SK-MEL-2 melanoma and with UO-31 renal were 2.93 µM, 2.63 µM and 1.63 µM, respectively.

As for `Cc1ccc(-n2nc(C(OC3OC(CO)C(O)C(O)C3O)C(O)CO)c3nc4cc(C)c(C)cc4nc32)cc1` (stereo unspecified), the TGI with NCI-H460 lung, in the assay with SF-268 CNS, in the assay with M19-MEL melanoma, in the assay with OVCAR-5 ovarian, in the assay with OVCAR-3 ovarian and in the assay with EKVX NSCLC was more than 100 µM throughout. In addition, the TGI in the assay with MOLT-4 leukemia and in the assay with UO-31 renal was more than 100 µM each time.

In the case of `CC(C)(C)O/N=C/c1cc(NC(=S)c2ccccc2)ccc1Cl`, the TGI amounted to 24.3 µM with NCI-H460 lung; 42.6 µM in the assay on HL-60(TB) leukemia; 58.5 µM with SF-268 CNS; 69.7 µM in the assay on OVCAR-5 ovarian; 35.3 µM in the assay with OVCAR-3 ovarian; 40.7 µM with EKVX NSCLC. For the same compound, the TGI with MOLT-4 leukemia came to 39.7 µM; in the assay on SK-MEL-2 melanoma, 39.6 µM; with UO-31 renal, 31.6 µM.
